In PubChem BioAssay (NCI) one finds TGI and GI50 data, which are given here for 10 compounds.

Each structure is given as a SMILES string.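 A five-concentration, 48-hour dose response in 96-well plates underlies each endpoint, interpolated linearly between surrounding concentrations. At the GI50, growth is halved. Definition used: TGI = concentration required for complete inhibition of growth.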

Holding throughout (assay): growth of human tumour cells (NCI), 48 h
The test system of assay [1] is 786-0 renal.
In assay [2] the test system is HCC-2998 colon.
In assay [3] the test system is HCT-15 colon.
In assay [4] the test system is KM12 colon.
The subject of assay [5] is LOX IMVI melanoma.
The subject of assay [6] is MDA-MB-435.
In assay [7] the test system is PC-3 prostate.
Assay [8] deals with SK-MEL-28 melanoma.
Assay [9] deals with TK-10 renal.
Assay [10] relates to UACC-62 melanoma.

On to `N#CC1(C2SCCS2=O)C2=C(C(=O)c3ccccc3C2=O)N2CCCC21` (stereo unspecified), for which the TGI was determined as 18.7 µM in assay [1]; 11.8 µM in assay [2]; 6.63 µM in [3]; 13.1 µM in assay [4]; 6.53 µM in [5]; 1.3 µM in assay [6]. In addition, the TGI in assay [7] was 14.7 µM; in [8], 7.8 µM; in assay [9], 43.7 µM; in assay [10], 6.54 µM.
Consider `COc1ccc(/C=c2/sc3n(c2=O)C(c2ccc(OC)c(OC)c2)C2=C(N=3)c3cc(F)ccc3OC2)cc1` (stereo unspecified), for which the GI50 in assay [1] is 42.1 µM; in assay [3] it was 22.2 µM; in assay [4], 18.1 µM; in [5], 23 µM; in [6] it was 14.1 µM; in assay [7], 17.6 µM. Besides, the GI50 in assay [8] was 51.5 µM; in assay [9], 29 µM; in [10] it was 17.9 µM. Further, the TGI in assay [1] was above 100 µM; in assay [2], 21.2 µM; in assay [3] it was above 83 µM; in assay [4], above 79.2 µM; in assay [5], 50.7 µM; in [6], 41.1 µM. In addition, the TGI in assay [7] is above 100 µM; in assay [8], above 96.6 µM; in assay [9] it was above 87.6 µM; in assay [10], above 63.3 µM.
`CC(C)c1ccccc1S(=O)c1ccccc1C(C)(C)O` (stereo unspecified): the TGI in assay [1], in [3], in assay [4], in assay [5], in assay [6] and in [7] was above 100 µM each time. The TGI in assay [8], in [9] and in [10] was above 100 µM each time.
For the compound `O=C(Nc1ccc(Cl)cc1F)c1cc(Br)ccc1O`, the GI50 in assay [1] is 2.58 µM; in assay [2] it was 2.73 µM; in assay [3], 1.06 µM; in assay [4], 2.13 µM; in assay [5], 0.769 µM; in assay [6], 0.941 µM. Further, the GI50 was 1.83 µM in assay [7], 0.563 µM in assay [8], 4.15 µM in [9] and 0.305 µM in assay [10]. Besides, the TGI in [1] is 7.43 µM; in assay [2], 13.3 µM; in [3] it was above 20.8 µM; in assay [4], 5.92 µM; in assay [5], 4.92 µM; in assay [6], 8.44 µM. In addition, the TGI in assay [7] was 8.53 µM; in [8], 3.19 µM; in assay [9] it was above 53.1 µM; in assay [10], 1.26 µM.
Consider `N#CC1Nc2ccccc2[C@@H](O)C1O` (stereo partly specified), for which the TGI in [1], in [2], in assay [3], in [4], in assay [5] and in assay [6] was above 100 µM each time. The TGI in [7], in assay [8], in assay [9] and in [10] was above 100 µM each time.
For `Cc1cn2c(/C=C3/C(=O)Nc4ccccc43)c(-c3ccc(Cl)cc3)nc2s1`, the GI50 in assay [1] was 7.08 µM; in assay [3] it was 6.93 µM; in assay [4], 10.5 µM; in [5], 5.84 µM; in [6] it was 8.07 µM; in [7], 9.81 µM. The GI50 is 8.99 µM in [9] and 5.49 µM in assay [10]. The TGI is 13.6 µM in assay [1]; 13.4 µM in [3]; 23.2 µM in assay [4]; 12 µM in assay [5]; 14.8 µM in [6]; 16.9 µM in assay [7]. The TGI in [9] came out at 17.3 µM; in assay [10] it was 11.5 µM.
For `O=C(O)c1cccc(OCCO)c1`, the TGI in [1], in [3], in assay [4], in assay [5], in [6] and in assay [7] was above 100 µM in each case. For the same compound, the TGI in assay [8], in [9] and in assay [10] was above 100 µM each time.
In the case of `CC(=O)Oc1ccccc1C(=O)N=C1[Se]CCCN1C(=O)c1ccccc1OC(C)=O`, the GI50 was 2.14 µM in [1]; 3.42 µM in assay [2]; 2.53 µM in assay [3]; 1.7 µM in [5]; 1.98 µM in [6]; 2.34 µM in [7]. Moreover, the GI50 in assay [8] was 2.36 µM; in assay [9], 1.87 µM. The TGI in assay [1] is 4.21 µM; in assay [2] it was 15.6 µM; in assay [3], 7.28 µM; in assay [5], 4.37 µM; in assay [6], 4.76 µM; in [7], 7.24 µM. The TGI in assay [8] turned out to be 5.74 µM; in [9], 3.81 µM.
Regarding `O=C(O)Cc1c(O)ccc2ccccc12`, the TGI in [1], in [3], in [4], in assay [5], in assay [6] and in assay [7] was above 100 µM throughout. Also, the TGI in assay [8], in [9] and in assay [10] was above 100 µM each time.
For the compound `Cc1c(C2Nc3ccccc3C2C)[nH]c2ccccc12` (stereo unspecified), the GI50 was 12 µM in assay [1]; 12.6 µM in assay [2]; 0.297 µM in [3]; 7.45 µM in assay [4]; 10.6 µM in [6]; 10.6 µM in assay [7]. Moreover, the GI50 in assay [8] was 12 µM; in [9], 17.4 µM; in assay [10], 6.24 µM. Further, the TGI turned out to be 31.5 µM in assay [1]; 26.6 µM in [2]; 25.9 µM in assay [3]; 29.1 µM in assay [4]; 24.6 µM in assay [6]; 32.3 µM in assay [7]. Moreover, the TGI was found to be 26.2 µM in assay [8], 34.2 µM in [9] and 21.3 µM in [10].
